Results published in ChEMBL document CHEMBL1201862, “PubChem BioAssay data set” (2004).
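A five-concentration, 48-hour dose response in 96-well plates underlies each endpoint, interpolated linearly between surrounding concentrations. GI50 marks 50% less growth.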 Calls of active or inactive are those of the source. Cut-off read from the data, not from the text of the source: active = GI50 up to about 1.1 µM and inactive = higher.

What was measured:
Experiment in all cases: NCI tumour cell line growth inhibition, 48 h
U-251 = test system: U-251
SNB-75 = test system: SNB-75
RXF 393 = test system: RXF 393
SF-268 = test system: SF-268
UACC-257 = test system: UACC-257
KM-20L2 = test system: KM-20L2
A498 = test system: A498
LOX IMVI = test system: LOX IMVI
OVCAR-3 = test system: OVCAR-3
CCRF-CEM = test system: CCRF-CEM
DLD-1 = test system: DLD-1
HCC 2998 = test system: HCC 2998
RPMI-8226 = test system: RPMI-8226
HCT-116 = test system: HCT-116
IGROV-1 = test system: IGROV-1
K562 = test system: K562
SNB-78 = test system: SNB-78
SF-539 = test system: SF-539
A549 = test system: A549
HL-60 = test system: HL-60
SNB-19 = test system: SNB-19
HT-29 = test system: HT-29
NCI-H522 = test system: NCI-H522
UACC-62 = test system: UACC-62
KM12 = test system: KM12
OVCAR-4 = test system: OVCAR-4
DMS-114 = test system: DMS-114
HOP-18 = test system: HOP-18
DMS-273 = test system: DMS-273
SW-620 = test system: SW-620
NCI-H226 = test system: NCI-H226
NCI-H460 = test system: NCI-H460
ACHN = test system: ACHN
EKVX = test system: EKVX
786-0 = test system: 786-0
HCT-15 = test system: HCT-15
M14 = test system: M14
COLO 205 = test system: COLO 205
SK-MEL-5 = test system: SK-MEL-5
OVCAR-8 = test system: OVCAR-8
UO-31 = test system: UO-31
MOLT-4 = test system: MOLT-4
Malme-3M = test system: Malme-3M
M19-MEL = test system: M19-MEL
HOP-62 = test system: HOP-62
NCI-H23 = test system: NCI-H23
SK-OV-3 = test system: SK-OV-3
SF-295 = test system: SF-295
CAKI-1 = test system: CAKI-1
SK-MEL-2 = test system: SK-MEL-2
HOP-92 = test system: HOP-92
OVCAR-5 = test system: OVCAR-5
SN12C = test system: SN12C
TK-10 = test system: TK-10
SK-MEL-28 = test system: SK-MEL-28
XF498 = test system: XF498
LXFL 529 = test system: LXFL 529
SR = test system: SR

Measured: GI50

O=C(CCCCCCCCC(=O)OCC1OC(n2cnc3c(=O)[nH]cnc32)C(O)C1O)OCC1OC(n2cnc3c(=O)[nH]cnc32)C(O)C1O (stereo unspecified)
inactive: U-251 > 100 µM | SNB-75 > 100 µM | RXF 393 > 100 µM | SF-268 > 100 µM | UACC-257 > 100 µM | KM-20L2 > 100 µM | A498 > 100 µM | LOX IMVI > 100 µM | OVCAR-3 > 100 µM | CCRF-CEM > 100 µM | DLD-1 > 100 µM | HCC 2998 > 100 µM | RPMI-8226 > 100 µM | HCT-116 > 100 µM | IGROV-1 > 100 µM | K562 > 100 µM | SNB-78 > 100 µM | SF-539 > 100 µM | A549 > 100 µM | HL-60 > 100 µM | SNB-19 > 100 µM | HT-29 > 100 µM | NCI-H522 > 100 µM | UACC-62 > 100 µM | KM12 > 100 µM | OVCAR-4 > 100 µM | DMS-114 > 100 µM | HOP-18 > 100 µM | DMS-273 > 100 µM | SW-620 > 100 µM | NCI-H226 > 100 µM | NCI-H460 > 100 µM | ACHN > 100 µM | EKVX > 100 µM | 786-0 > 100 µM | M14 > 100 µM | COLO 205 > 100 µM | SK-MEL-5 > 100 µM | OVCAR-8 > 100 µM | UO-31 > 100 µM | MOLT-4 > 100 µM | Malme-3M > 100 µM | M19-MEL > 100 µM | HOP-62 > 100 µM | NCI-H23 > 100 µM | SK-OV-3 > 100 µM | SF-295 > 100 µM | CAKI-1 > 100 µM | SK-MEL-2 > 100 µM | HOP-92 > 100 µM | OVCAR-5 > 100 µM | SN12C > 100 µM | TK-10 > 100 µM | SK-MEL-28 > 100 µM | XF498 > 100 µM
> 100 µM: HCT-15

CC(=O)O[C@H]1CC[C@@]2(C)C(=CC[C@H]3C(CC#N)[C@@](C)(C#N)CCC32)C1 (stereo partly specified)
inactive: U-251 74 µM | SNB-75 69.8 µM | RXF 393 > 100 µM | SF-268 > 100 µM | UACC-257 > 100 µM | KM-20L2 > 100 µM | A498 38.5 µM | LOX IMVI > 100 µM | OVCAR-3 > 100 µM | CCRF-CEM > 100 µM | DLD-1 > 100 µM | HCC 2998 > 100 µM | RPMI-8226 > 100 µM | HCT-116 > 100 µM | IGROV-1 > 100 µM | K562 > 100 µM | SNB-78 47.6 µM | SF-539 > 100 µM | A549 > 100 µM | HL-60 > 100 µM | SNB-19 > 100 µM | HT-29 > 100 µM | UACC-62 > 100 µM | KM12 > 100 µM | OVCAR-4 > 100 µM | DMS-114 > 100 µM | DMS-273 > 100 µM | LXFL 529 > 100 µM | SW-620 > 100 µM | NCI-H226 > 100 µM | NCI-H460 > 100 µM | ACHN > 100 µM | EKVX > 100 µM | 786-0 > 100 µM | M14 > 100 µM | COLO 205 > 100 µM | SK-MEL-5 > 100 µM | OVCAR-8 > 100 µM | UO-31 > 100 µM | MOLT-4 > 100 µM | Malme-3M > 100 µM | M19-MEL > 100 µM | HOP-62 > 100 µM | NCI-H23 > 100 µM | SK-OV-3 > 100 µM | SF-295 > 100 µM | SK-MEL-2 > 100 µM | HOP-92 16.1 µM | OVCAR-5 > 100 µM | SN12C > 100 µM | TK-10 > 100 µM | SK-MEL-28 > 100 µM | XF498 > 100 µM
> 100 µM: HCT-15

COc1ccc(NC(=O)CC2S/C(=N\c3ccccc3C)NC2=O)c([N+](=O)[O-])c1 (stereo unspecified)
inactive: U-251 > 100 µM | SNB-75 > 100 µM | SF-268 > 100 µM | UACC-257 > 100 µM | KM-20L2 > 100 µM | LOX IMVI > 100 µM | OVCAR-3 > 100 µM | DLD-1 > 100 µM | HCC 2998 > 100 µM | RPMI-8226 > 100 µM | HCT-116 > 100 µM | IGROV-1 > 100 µM | K562 > 100 µM | SNB-78 > 100 µM | SF-539 > 100 µM | A549 > 100 µM | HL-60 > 100 µM | SNB-19 > 100 µM | HT-29 > 100 µM | NCI-H522 25.4 µM | UACC-62 > 100 µM | KM12 > 100 µM | OVCAR-4 > 100 µM | DMS-273 > 100 µM | LXFL 529 > 100 µM | SW-620 > 100 µM | NCI-H226 > 100 µM | SR > 100 µM | NCI-H460 > 100 µM | ACHN > 100 µM | 786-0 > 100 µM | M14 > 100 µM | COLO 205 > 100 µM | OVCAR-8 > 100 µM | UO-31 > 100 µM | MOLT-4 > 100 µM | Malme-3M > 100 µM | M19-MEL > 100 µM | HOP-62 > 100 µM | NCI-H23 > 100 µM | SK-OV-3 > 100 µM | SF-295 > 100 µM | SK-MEL-2 > 100 µM | HOP-92 > 100 µM | OVCAR-5 > 100 µM | SN12C > 100 µM | TK-10 > 100 µM | SK-MEL-28 > 100 µM | XF498 > 100 µM
> 100 µM: HCT-15

O=[N+]([O-])c1cccc(/C=N/C23CC4CC(CC(C4)C2)C3)c1
> 100 µM: HCT-15
inactive: U-251 > 100 µM | SNB-75 > 100 µM | RXF 393 > 100 µM | SF-268 > 100 µM | UACC-257 > 100 µM | KM-20L2 > 100 µM | A498 > 100 µM | LOX IMVI 63.7 µM | OVCAR-3 > 100 µM | CCRF-CEM 25.1 µM | DLD-1 > 100 µM | HCC 2998 > 100 µM | RPMI-8226 > 10 µM | HCT-116 > 100 µM | IGROV-1 > 100 µM | K562 29.7 µM | SNB-78 > 100 µM | SF-539 > 100 µM | A549 > 100 µM | HL-60 23.9 µM | SNB-19 > 100 µM | HT-29 > 100 µM | NCI-H522 > 100 µM | UACC-62 > 100 µM | KM12 > 100 µM | OVCAR-4 > 100 µM | DMS-114 > 100 µM | HOP-18 > 100 µM | DMS-273 > 100 µM | LXFL 529 > 100 µM | SW-620 57.1 µM | NCI-H226 > 100 µM | NCI-H460 > 100 µM | ACHN > 100 µM | EKVX > 100 µM | 786-0 > 100 µM | M14 > 100 µM | COLO 205 > 100 µM | SK-MEL-5 70.8 µM | OVCAR-8 > 100 µM | UO-31 > 100 µM | MOLT-4 74.1 µM | Malme-3M > 100 µM | M19-MEL > 100 µM | HOP-62 > 100 µM | NCI-H23 > 100 µM | SK-OV-3 > 100 µM | SF-295 > 100 µM | CAKI-1 > 100 µM | SK-MEL-2 > 100 µM | HOP-92 > 100 µM | OVCAR-5 > 100 µM | SN12C > 100 µM | TK-10 > 100 µM | SK-MEL-28 > 100 µM | XF498 > 100 µM

O=C(N/C(=C\c1ccc(/C=C(\NC(=O)c2ccccc2)c2nc3ccccc3[nH]2)cc1)c1nc2ccccc2[nH]1)c1ccccc1
> 100 µM: HCT-15
inactive: U-251 > 100 µM | SNB-75 > 100 µM | RXF 393 > 100 µM | SF-268 > 100 µM | UACC-257 > 100 µM | KM-20L2 > 100 µM | A498 > 100 µM | LOX IMVI > 100 µM | OVCAR-3 > 100 µM | CCRF-CEM > 100 µM | DLD-1 > 100 µM | HCC 2998 > 100 µM | RPMI-8226 > 100 µM | HCT-116 > 100 µM | IGROV-1 > 100 µM | K562 > 100 µM | SNB-78 > 100 µM | SF-539 > 100 µM | A549 > 100 µM | SNB-19 > 100 µM | HT-29 > 100 µM | NCI-H522 > 100 µM | UACC-62 > 100 µM | OVCAR-4 > 100 µM | DMS-114 > 100 µM | HOP-18 > 100 µM | DMS-273 52.8 µM | LXFL 529 > 100 µM | SW-620 > 100 µM | NCI-H460 > 100 µM | ACHN > 100 µM | EKVX > 100 µM | 786-0 > 100 µM | M14 57.9 µM | COLO 205 > 100 µM | SK-MEL-5 > 100 µM | OVCAR-8 > 100 µM | UO-31 > 100 µM | MOLT-4 > 100 µM | Malme-3M > 100 µM | M19-MEL > 100 µM | HOP-62 > 100 µM | NCI-H23 > 100 µM | SK-OV-3 > 100 µM | SF-295 > 100 µM | CAKI-1 > 100 µM | SK-MEL-2 > 100 µM | HOP-92 > 100 µM | OVCAR-5 > 100 µM | SN12C > 100 µM | TK-10 > 100 µM | SK-MEL-28 > 100 µM | XF498 > 100 µM
